Measurements reported in patent publication US20240133877A1, “PRODUCTS AND METHODS FOR MONITORING ADHERENCE TO NUCLEOSIDE REVERSE TRANSCRIPTASE INHIBITOR THERAPY” (priority 2017, published 2024).
Values joined by “and” are separate entries in the source; they are usually repeats but may differ in a detail not shown here. Identical values can stand only once.

What was measured:
[1] = system: pAb 313; test: Cross reactivity of compounds spiked in buffer with pAb 313; format: binding, rabbit; conditions: compound spiked in buffer
Procedure: (§1) To identify which compounds were causing cross reactivity, potentially cross-reactive compounds (compounds with similar chemical structure to TFV) were spiked in buffer and tested with the pAbs. We tested 11 compounds, and their percent cross reactivity was calculated for each of the substances in Table 3 to each antibody.

[2] = system: pAb 312; test: Cross reactivity of compounds spiked in buffer with pAb 312; format: binding, rabbit; conditions: compound spiked in buffer
Procedure: as §1

[3] = Urine and plasma TFV levels by LC-MS/MS in participants taking TAF; format: in vivo, human
Procedure: Blood and urine samples were collected from 3 cohorts of patients: (1) 10 HIV positive participants with suppressed virus on a TAF-based regimen, (2) 10 HIV- participants administered 1 dose of FTC/TAF followed by urine and plasma sampling for 7 days starting 1-3 hours post-dose, and (3) 10 HIV- participants administered 7 daily doses of FTC/TAF followed by urine and plasma sampling for 10 days starting 1-3 hours after the last dose. Samples were analyzed using liquid chromatography-tandem mass spectrometry (LC-MS/MS) with high sensitivity and specificity for TFV. Samples from cohort 2 were compared to a historical cohort administered one dose of FTC/TD F.

[4] = system: anti-TFV monoclonal antibody-HRP conjugates; test: Whole-blood TFV-DP ELISA with phosphatase; format: binding; conditions: for OD Value: replicates
Procedure: ELISA plates and reagents were equilibrated at room temperature. 50 μL of TFV-DP standard were plated onto a dilution plate in triplicate to generate a standard curve. TFV-DP standards were 250, 100, 50, 25, 10, 5, and 1 ng/mL, along with a blank. 50 μL of whole blood samples were added in duplicate or triplicate.
[…] 25 μL of conjugate solution containing anti-TFV monoclonal antibody-HRP conjugates was added to each well.
The dilution plate was covered and incubated at 25° C. for 30 minutes with shaking at 300-600 rpm. After incubation, the total volume of the dilution plate wells was transferred to an ELISA plate pre-coated with tenofovir-BSA conjugate (TFV-BSA). The ELISA plate was covered and incubated at 25° C. for 30 minutes with shaking at 300-600 rpm. The ELISA plate was washed with 350 μL per well of wash buffer for a total of 6 cycles, with a final aspirate.
100 μL of TMB substrate was added to each well. The ELISA plate was incubated in the dark at 25° C. for 30 minutes. 100 μL of stop solution was added to each well to quench the reactions. Absorbance was measured at 450 (primary) and 630 (reference) nm wavelengths within 15 minutes of quenching the reactions. OD was calculated by subtracting the reference absorbance from the primary absorbance. A standard curve was generated using a 4-parameter logistic regression or a 5-parameter logistic regression. The percent inhibition was calculated using the following formula: […]

[5] = system: anti-TFV antibodies conjugated to colloidal gold; test: Negative readout lateral flow assay, TFV-DP in PBS; format: binding
Text: […] Samples were loaded onto negative readout lateral flow assays. Lateral flow assays had anti-TFV antibodies conjugated to colloidal gold at the conjugate pad and TFV derivates striped at the test line. Visual reads were made at 10- and 15-minute time points.

[6] = system: anti-TFV antibodies conjugated to colloidal gold; test: Negative readout lateral flow assay, TFV-DP in whole blood; format: binding; set-up: Visual Read Results / Test Line Visual Read Results: scale not given here; conditions: for TFV-DP conversion to TFV: phosphatase 30 minutes; for Visual Read Results: WB with phosphatase
Procedure: […] Samples were diluted by 1:10 or 1:2 and loaded onto negative readout lateral flow assays. Visual reads were made at 10- and 15-minute time points.
Samples were loaded onto negative readout lateral flow assays. Visual reads were made at 10- and 15-minute time points. Results are shown in FIGS. 11A and 11B and Table 10.

[7] = red blood cells and dried blood spots; cited from earlier work
[8] = HIV-positive participants on TAF-based regimen (Cohort 1)

## Nc1ncnc2c1ncn2[C@H]1C[C@H](O)[C@@H](COP(=O)(O)OP(=O)(O)OP(=O)(O)O)O1 [2′ Deoxyadenosine 5′ Triphosphate]
[1]
  Cross Reactivity of 313 (vs TFV standard): None
[2]
  Cross Reactivity of 312 (vs TFV standard): None

## Nc1nc2c(ncn2[C@H]2C[C@H](O)[C@@H](COP(=O)(O)OP(=O)(O)OP(=O)(O)O)O2)c(=O)[nH]1 [2′Deoxyguanosine 5′ Triphosphate]
[1]
  Cross Reactivity of 313 (vs TFV standard): None
[2]
  Cross Reactivity of 312 (vs TFV standard): None

## Nc1ncnc2c1ncn2CCOCP(=O)(O)O [Adefovir]
[1]
  Cross Reactivity of 313 (vs TFV standard): Reactive (0.1%)
[2]
  Cross Reactivity of 312 (vs TFV standard): Reactive (0.1%)

## Nc1ncnc2c1ncn2[C@@H]1O[C@H](CO)[C@@H](OP(=O)(O)O)[C@H]1O [Adenosine 3′ Monophosphate]
[1]
  Cross Reactivity of 313 (vs TFV standard): Reactive (0.1%)
[2]
  Cross Reactivity of 312 (vs TFV standard): Reactive (0.1%)

## Nc1ncnc2c1ncn2[C@@H]1O[C@H](COP(=O)(O)O)[C@@H](O)[C@H]1O.O [Adenosine 5′ Monophosphate Monohydrate]
[1]
  Cross Reactivity of 313 (vs TFV standard): None
[2]
  Cross Reactivity of 312 (vs TFV standard): None

## Nc1ncnc2c1ncn2[C@@H]1O[C@H](COP(=O)([O-])OP(=O)([O-])OP(=O)(O)O)[C@@H](O)[C@H]1O.[Na+].[Na+] [Adenosine 5′ Triphosphate Disodium]
[1]
  Cross Reactivity of 313 (vs TFV standard): None
[2]
  Cross Reactivity of 312 (vs TFV standard): None

## Nc1ncnc2c1ncn2[C@@H]1O[C@H](CO)[C@@H](O)[C@H]1O [Adenosine]
[1]
  Cross Reactivity of 313 (vs TFV standard): Reactive (0.1%)
[2]
  Cross Reactivity of 312 (vs TFV standard): None

## Nc1ccn(C[C@@H](CO)OCP(=O)(O)O)c(=O)n1 [Cidofovir Hydrate]
[1]
  Cross Reactivity of 313 (vs TFV standard): Reactive (5%)
[2]
  Cross Reactivity of 312 (vs TFV standard): None

## Nc1nc2c(ncn2[C@@H]2O[C@H](COP(=O)([O-])[O-])[C@@H](O)[C@H]2O)c(=O)[nH]1.[Na+].[Na+] [Guanosine 5′ Monophosphate Disodium]
[1]
  Cross Reactivity of 313 (vs TFV standard): None
[2]
  Cross Reactivity of 312 (vs TFV standard): None

## CNc1ncnc2c1ncn2[C@@H]1O[C@H](COP(=O)(O)O)[C@@H](O)[C@H]1O [N6 Methyladenosine 5′ Monophosphate]
[1]
  Cross Reactivity of 313 (vs TFV standard): None
[2]
  Cross Reactivity of 312 (vs TFV standard): Reactive (0.1%)

## CNc1ncnc2c1ncn2[C@@H]1O[C@H](CO)[C@@H](O)[C@H]1O [N6 Methyladenosine]
[1]
  Cross Reactivity of 313 (vs TFV standard): None
[2]
  Cross Reactivity of 312 (vs TFV standard): None

## C[C@H](Cn1cnc2c(N)ncnc21)OCP(=O)(O)O [TFV, tenofovir]
[3]; 7 consecutive doses FTC/TAF, 1-3 hours after discontinuation of dosing
  urine TFV concentration: > 1000 ng/mL
[3]; 7 consecutive doses FTC/TAF, up to 7 days post discontinuation, in 8 out of 10 participants
  urine TFV level: > 100 ng/mL
[3]; HIV-positive participants on TAF-based regimen
  TFV concentration higher in urine than plasma: 2 logs
[3]; [8]
  plasma TFV concentration: 10 ng/mL
  urine TFV concentration: 1000 ng/mL
[3]; both HIV-negative cohorts (FTC/TAF), all time points
  plasma TFV concentration: ≤ 10 ng/mL
[3]; human, urine, oral, single dose FTC/TAF, for 6 days, in 8 of 10 participants, read-out: urine TFV concentration remaining
  concentration at 144 h: > 100 ng/mL
[3]; patients taking FTC/TAF
  persistence of TFV in urine at detectable concentrations: at least 7 days
[3]; single dose
  urine TFV concentrations after FTC/TAF versus historical cohort administered FTC/TDF: comparable
[3]; single dose FTC/TAF, HIV- subjects, 1-3 hours post-dose
  urine TFV concentration: 100 to 1000 ng/mL

## C[C@H](Cn1cnc2c(N)ncnc21)OCP(=O)(O)OP(=O)(O)OP(=O)(O)O [TFV-DP, tenofovir diphosphate]
[4]; No Phosphatase
  % Inhibition: 33.05%
  OD Average: 1.0986
  OD Value: 1.088 and 1.2148 and 1.2340 and 1.1083
[4]; Phosphatase
  % Inhibition: 76.63%
  OD Average: 0.3835
  OD Value: 0.3853 and 0.3923 and 0.3798 and 0.3766
[5]; 325 ng/mL, 10 minutes
  Visual Read Results (Enzyme Present): 5
  Visual Read Results (No Enzyme Present): 8
[5]; 325 ng/mL, 15 minutes
  Visual Read Results (Enzyme Present): 5/6
  Visual Read Results (No Enzyme Present): 8
[5]; 1300 ng/mL, 10 minutes
  Visual Read Results (Enzyme Present): 3
  Visual Read Results (No Enzyme Present): 7
[5]; 1300 ng/mL, 15 minutes
  Visual Read Results (Enzyme Present): 3
  Visual Read Results (No Enzyme Present): 7
[5]; 3250 ng/mL, 10 minutes
  Visual Read Results (Enzyme Present): 0/1
  Visual Read Results (No Enzyme Present): 6
[5]; 3250 ng/mL, 15 minutes
  Visual Read Results (Enzyme Present): 0/1
  Visual Read Results (No Enzyme Present): 6
[5]; phosphatase from sweet potato extract, 30 minutes
  TFV-DP conversion to TFV: Conversion of TFV-DP to TFV was observed
[5]; without phosphatase treatment
  TFV-DP conversion to TFV: No conversion of TFV-DP to TFV was observed
[6]; WB 975 and 325 ng/mL, diluted 1:10 or 1:2
  TFV-DP conversion to TFV: Conversion of TFV-DP to TFV was observed
[6]; WB 975 and 325 ng/mL, no further dilution
  TFV-DP conversion to TFV: Conversion of TFV-DP to TFV was observed
[6]; WB 1000-12000 ng/mL, diluted 1:10
  TFV-DP conversion to TFV: Conversion of TFV-DP to TFV was observed
[6]; WB diluted 1:10, 1000 ng/ml, 10 minutes
  Test Line Visual Read Results: 7
[6]; WB diluted 1:10, 1000 ng/ml, 15 minutes
  Test Line Visual Read Results: 7
[6]; WB diluted 1:10, 2000 ng/ml, 10 minutes
  Test Line Visual Read Results: 7
[6]; WB diluted 1:10, 2000 ng/ml, 15 minutes
  Test Line Visual Read Results: 7
[6]; WB diluted 1:10, 3000 ng/ml, 10 minutes
  Test Line Visual Read Results: 7
[6]; WB diluted 1:10, 3000 ng/ml, 15 minutes
  Test Line Visual Read Results: 7
[6]; WB diluted 1:10, 3250 ng/ml, 10 minutes
  Test Line Visual Read Results: 7
[6]; WB diluted 1:10, 3250 ng/ml, 15 minutes
  Test Line Visual Read Results: 7
[6]; WB diluted 1:10, 4000 ng/ml, 10 minutes
  Test Line Visual Read Results: 6
[6]; WB diluted 1:10, 4000 ng/ml, 15 minutes
  Test Line Visual Read Results: 6
[6]; WB diluted 1:10, 5000 ng/ml, 10 minutes
  Test Line Visual Read Results: 5
[6]; WB diluted 1:10, 5000 ng/ml, 15 minutes
  Test Line Visual Read Results: 5
[6]; WB diluted 1:10, 6000 ng/ml, 10 minutes
  Test Line Visual Read Results: 5
[6]; WB diluted 1:10, 6000 ng/ml, 15 minutes
  Test Line Visual Read Results: 5
[6]; WB diluted 1:10, 7000 ng/ml, 10 minutes
  Test Line Visual Read Results: 5
[6]; WB diluted 1:10, 7000 ng/ml, 15 minutes
  Test Line Visual Read Results: 5
[6]; WB diluted 1:10, 8000 ng/ml, 10 minutes
  Test Line Visual Read Results: 5
[6]; WB diluted 1:10, 8000 ng/ml, 15 minutes
  Test Line Visual Read Results: 5
[6]; WB diluted 1:10, 9000 ng/ml, 10 minutes
  Test Line Visual Read Results: 4
[6]; WB diluted 1:10, 9000 ng/ml, 15 minutes
  Test Line Visual Read Results: 4
[6]; WB diluted 1:10, 9750 ng/ml, 10 minutes
  Test Line Visual Read Results: 4
[6]; WB diluted 1:10, 9750 ng/ml, 15 minutes
  Test Line Visual Read Results: 4
[6]; WB diluted 1:10, 10000 ng/ml, 10 minutes
  Test Line Visual Read Results: 4
[6]; WB diluted 1:10, 10000 ng/ml, 15 minutes
  Test Line Visual Read Results: 4
[6]; WB diluted 1:10, 11000 ng/ml, 10 minutes
  Test Line Visual Read Results: 4
[6]; WB diluted 1:10, 11000 ng/ml, 15 minutes
  Test Line Visual Read Results: 4
[6]; WB diluted 1:10, 12000 ng/ml, 10 minutes
  Test Line Visual Read Results: 3
[6]; WB diluted 1:10, 12000 ng/ml, 15 minutes
  Test Line Visual Read Results: 3
[6]; diluted 1:10 or 1:2, 325 ng/ml, 10 minutes
  Visual Read Results: 6
[6]; diluted 1:10 or 1:2, 325 ng/ml, 15 minutes
  Visual Read Results: 6
[6]; diluted 1:10 or 1:2, 975 ng/ml, 10 minutes
  Visual Read Results: 4
[6]; diluted 1:10 or 1:2, 975 ng/ml, 15 minutes
  Visual Read Results: 4
[6]; no further dilution (Table 10), 325 ng/ml, 10 minutes
  Visual Read Results: 3/4
[6]; no further dilution (Table 10), 325 ng/ml, 15 minutes
  Visual Read Results: 3/4
[6]; no further dilution (Table 10), 975 ng/ml, 10 minutes
  Visual Read Results: 0
[6]; no further dilution (Table 10), 975 ng/ml, 15 minutes
  Visual Read Results: 0
[7]
  accumulation from the first dose to steady state: 25 fold
  half-life: 17 days
